{"source": "ChEMBL document CHEMBL3272133", "about": "“1-[4-(4-Chlorophenyl)-2-(2,6-dichlorophenylthio)-n-butyl]-1H-imidazole nitrate, a new potent antifungal agent” (J Med Chem, 1978)", "key": {"[1]": {"test_system": "Trichophyton mentagrophytes", "test": "Antifungal activity against Trichophyton mentagrophytes infected in guinea pig assessed as noninfected animals at 0.5% formulation in steryl alcohol, cetyl alcohol, Span 60, Tween 60, propylene glycol, mineral oil, and water administered qd for 5 days measured on day 7", "type": "functional"}, "[2]": {"test_system": "Candida albicans", "test": "Antifungal activity against mixed infection of Candida albicans infected in mouse assessed as noninfected animals at 2% commercial cream formulation administered vaginally bid for 4 days measured on day 7 relative to placebo", "type": "functional"}, "[3]": {"test_system": "Candida albicans", "test": "Antifungal activity against Candida albicans infected in mouse assessed as noninfected animals at 0.5% formulation in neat PEG 400 solution administered vaginally bid for 4 days measured on day 7 relative to placebo", "type": "functional"}, "[4]": {"test_system": "Candida albicans", "test": "Antifungal activity against mixed infection of Candida albicans infected in mouse assessed as noninfected animals at 0.2% formulation administered vaginally bid for 4 days measured on day 7 relative to placebo", "type": "functional"}, "[5]": {"test_system": "Candida albicans", "test": "Antifungal activity against mixed infection of Candida albicans infected in mouse assessed as noninfected animals at 1% formulation administered vaginally bid for 4 days measured 6 hrs post last dose relative to placebo", "type": "functional"}, "[6]": {"test_system": "Cryptococcus neoformans", "test": "Antifungal activity against Cryptococcus neoformans assessed as growth inhibition by broth dilution method", "type": "functional"}, "[7]": {"test_system": "Candida albicans", "test": "Antifungal activity against mixed infection of Candida albicans infected in mouse assessed as noninfected animals at 0.5% formulation administered vaginally bid for 4 days measured on day 7 relative to placebo", "type": "functional"}, "[8]": {"test_system": "Candida albicans", "test": "Antifungal activity against Candida albicans infected in mouse assessed as noninfected animals at 1% formulation in neat PEG 400 solution administered vaginally bid for 4 days measured on day 7 relative to placebo", "type": "functional"}, "[9]": {"test_system": "Candida albicans", "test": "Antifungal activity against mixed infection of Candida albicans infected in mouse assessed as noninfected animals at 0.5% formulation administered vaginally bid for 4 days measured 6 hrs post last dose relative to placebo", "type": "functional"}, "[10]": {"test_system": "Trichophyton mentagrophytes", "test": "Antifungal activity against Trichophyton mentagrophytes assessed as growth inhibition by agar dilution method", "type": "functional"}, "[11]": {"test_system": "Candida albicans", "test": "Antifungal activity against Candida albicans infected in mouse assessed as noninfected animals at 4% formulation in neat PEG 400 solution administered vaginally bid for 4 days measured 6 hrs post last dose relative to placebo", "type": "functional"}, "[12]": {"test_system": "Candida albicans", "test": "Antifungal activity against mixed infection of Candida albicans infected in mouse assessed as noninfected animals at 2% formulation administered vaginally bid for 4 days measured on day 7 relative to placebo", "type": "functional"}, "[13]": {"test_system": "Candida albicans", "test": "Antifungal activity against mixed infection of Candida albicans infected in mouse assessed as noninfected animals at 0.2% formulation administered vaginally bid for 4 days measured 6 hrs post last dose relative to placebo", "type": "functional"}, "[14]": {"test_system": "Candida albicans", "test": "Antifungal activity against Candida albicans infected in mouse assessed as noninfected animals at 2% formulation in neat PEG 400 solution administered vaginally bid for 4 days measured on day 7 relative to placebo", "type": "functional"}, "[15]": {"test_system": "Streptococcus pyogenes", "test": "Antibacterial activity against Streptococcus pyogenes No. 8668 assessed as growth inhibition by broth microdilution method", "type": "functional"}, "[16]": {"test_system": "Candida albicans", "test": "Antifungal activity against Candida albicans infected in mouse assessed as noninfected animals at 0.5% formulation in neat PEG 400 solution administered vaginally bid for 4 days measured 6 hrs post last dose relative to placebo", "type": "functional"}, "[17]": {"test_system": "Staphylococcus aureus", "test": "Antibacterial activity against Staphylococcus aureus No. 14154 assessed as growth inhibition by broth microdilution method", "type": "functional"}, "[18]": {"test_system": "Trichophyton rubrum", "test": "Antifungal activity against Trichophyton rubrum assessed as growth inhibition by agar dilution method", "type": "functional"}, "[19]": {"test_system": "Candida albicans", "test": "Antifungal activity against Candida albicans infected in mouse assessed as noninfected animals at 2% formulation in neat PEG 400 solution administered vaginally bid for 4 days measured 6 hrs post last dose relative to placebo", "type": "functional"}, "[20]": {"test_system": "Candida albicans", "test": "Antifungal activity against Candida albicans ATCC 10231 assessed as growth inhibition by broth dilution method", "type": "functional"}, "[21]": {"test_system": "Candida albicans", "test": "Antifungal activity against mixed infection of Candida albicans infected in mouse assessed as noninfected animals at 2% formulation administered vaginally bid for 4 days measured 6 hrs post last dose relative to placebo", "type": "functional"}, "[22]": {"test_system": "Candida albicans", "test": "Antifungal activity against mixed infection of Candida albicans infected in mouse assessed as noninfected animals at 1% formulation administered vaginally bid for 4 days measured on day 7 relative to placebo", "type": "functional"}, "[23]": {"test_system": "Trichophyton mentagrophytes", "test": "Antifungal activity against Trichophyton mentagrophytes infected in guinea pig assessed as noninfected animals at 0.5% formulation in steryl alcohol, cetyl alcohol, Span 60, Tween 60, propylene glycol, mineral oil, and water administered qd for 5 days measured on day 4", "type": "functional"}, "[24]": {"test_system": "Trichophyton tonsurans", "test": "Antifungal activity against Trichophyton tonsurans assessed as growth inhibition by agar dilution method", "type": "functional"}, "[25]": {"test_system": "Candida albicans", "test": "Antifungal activity against Candida albicans infected in mouse assessed as noninfected animals at 1% formulation in neat PEG 400 solution administered vaginally bid for 4 days measured 6 hrs post last dose relative to placebo", "type": "functional"}, "[26]": {"test_system": "Enterococcus faecalis", "test": "Antibacterial activity against Streptococcus faecalis No. 8043-2 assessed as growth inhibition by broth microdilution method", "type": "functional"}, "[27]": {"test_system": "Trichophyton mentagrophytes", "test": "Antifungal activity against Trichophyton mentagrophytes infected in guinea pig assessed as noninfected animals at 0.5% formulation in steryl alcohol, cetyl alcohol, Span 60, Tween 60, propylene glycol, mineral oil, and water administered qd for 5 days measured on day 14", "type": "functional"}, "[28]": {"test_system": "Nannizzia gypsea", "test": "Antifungal activity against Microsporum gypseum assessed as growth inhibition by agar dilution method", "type": "functional"}, "[29]": {"test_system": "Candida albicans", "test": "Antifungal activity against mixed infection of Candida albicans infected in mouse assessed as noninfected animals at 2% commercial cream formulation administered vaginally bid for 4 days measured 6 hrs post last dose relative to placebo", "type": "functional"}, "[30]": {"test_system": "Candida albicans", "test": "Antifungal activity against Candida albicans infected in mouse assessed as noninfected animals at 2% formulation in modified PEG 400 solution administered vaginally bid for 4 days measured on day 7 relative to placebo", "type": "functional, organism-based"}, "[31]": {"test_system": "Microsporum canis", "test": "Antifungal activity against Microsporum canis assessed as growth inhibition by agar dilution method", "type": "functional"}, "[32]": {"test_system": "Candida albicans", "test": "Antifungal activity against Candida albicans infected in mouse assessed as noninfected animals at 4% formulation in neat PEG 400 solution administered vaginally bid for 4 days measured on day 7 relative to placebo", "type": "functional"}, "[33]": {"test_system": "Epidermophyton floccosum", "test": "Antifungal activity against Epidermophyton floccosum assessed as growth inhibition by agar dilution method", "type": "functional"}, "[34]": {"test_system": "Candida albicans", "test": "Antifungal activity against Candida albicans ATCC 14053 assessed as growth inhibition by broth dilution method", "type": "functional"}, "[35]": {"test": "Antifungal activity against Trichophyton concentricum assessed as growth inhibition by agar dilution method", "type": "functional"}, "[36]": {"test_system": "Staphylococcus aureus", "test": "Antibacterial activity against Staphylococcus aureus No. 6538 P assessed as growth inhibition by broth microdilution method", "type": "functional"}}, "note": "Activity calls are given as the source filed them. The rule behind the calls is not given here."}
{"smiles": "Clc1ccc(COC(Cn2ccnc2)c2ccc(Cl)cc2Cl)c(Cl)c1", "note": "(stereo unspecified) [MICONAZOLE]", "values": [{"measurement": "Activity", "setting": "[1]", "result": 80, "unit": "%"}, {"measurement": "Activity", "setting": "[2]", "result": 25, "unit": "%"}, {"measurement": "Activity", "setting": "[3]", "result": 25, "unit": "%"}, {"measurement": "Activity", "setting": "[4]", "result": 20, "unit": "%"}, {"measurement": "Activity", "setting": "[5]", "result": 20, "unit": "%"}, {"measurement": "GI", "setting": "[6]", "result": "<=0.3 ug ml-1"}, {"measurement": "Activity", "setting": "[7]", "result": 11, "unit": "%"}, {"measurement": "Activity", "setting": "[8]", "result": 25, "unit": "%"}, {"measurement": "Activity", "setting": "[9]", "result": 20, "unit": "%"}, {"measurement": "GI", "setting": "[10]", "result": 0.5, "unit": "µg/mL"}, {"measurement": "Activity", "setting": "[11]", "result": 75, "unit": "%"}, {"measurement": "Activity", "setting": "[12]", "result": 15, "unit": "%"}, {"measurement": "Activity", "setting": "[13]", "result": 15, "unit": "%"}, {"measurement": "Activity", "setting": "[14]", "result": 37, "unit": "%"}, {"measurement": "GI", "setting": "[15]", "result": "<=0.0008 ug ml-1"}, {"measurement": "Activity", "setting": "[16]", "result": 30, "unit": "%"}, {"measurement": "GI", "setting": "[17]", "result": 12.5, "unit": "µg/mL"}, {"measurement": "GI", "setting": "[18]", "result": 0.5, "unit": "µg/mL"}, {"measurement": "Activity", "setting": "[19]", "result": 50, "unit": "%"}, {"measurement": "GI", "setting": "[20]", "result": 30, "unit": "µg/mL"}, {"measurement": "Activity", "setting": "[21]", "result": 10, "unit": "%"}, {"measurement": "Activity", "setting": "[22]", "result": 25, "unit": "%"}, {"measurement": "Activity", "setting": "[23]", "result": 70, "unit": "%"}, {"measurement": "GI", "setting": "[24]", "result": 0.5, "unit": "µg/mL"}, {"measurement": "Activity", "setting": "[25]", "result": 60, "unit": "%"}, {"measurement": "GI", "setting": "[26]", "result": 3.12, "unit": "µg/mL"}, {"measurement": "Activity", "setting": "[27]", "result": 10, "unit": "%"}, {"measurement": "GI", "setting": "[28]", "result": 0.05, "unit": "µg/mL"}, {"measurement": "Activity", "setting": "[29]", "result": 33, "unit": "%"}, {"measurement": "Activity", "setting": "[30]", "result": "inactive"}, {"measurement": "GI", "setting": "[31]", "result": 0.5, "unit": "µg/mL"}, {"measurement": "Activity", "setting": "[32]", "result": 70, "unit": "%"}, {"measurement": "GI", "setting": "[33]", "result": 5, "unit": "µg/mL"}, {"measurement": "GI", "setting": "[34]", "result": 30, "unit": "µg/mL"}, {"measurement": "GI", "setting": "[35]", "result": 0.5, "unit": "µg/mL"}, {"measurement": "GI", "setting": "[36]", "result": 6.25, "unit": "µg/mL"}]}
